Values quoted from earlier work, collected in paper PMC10784415 (Developmental dynamics : an official publication of the …, 2023).

Tested on: tooth buds
Conditions: animal studies; cited from earlier work

## COc1cc2nccc(Oc3ccc(NC(=O)Nc4cc(C)on4)c(Cl)c3)c2cc1OC [tivozanib]
  Effect on tooth buds: shallower or narrower tooth buds
